Source: patent US4604380A, “C-23-substituted mycaminosyltylonolide compounds, pharmaceutical compositions and methods of use” (Eli Lilly and Company, priority 1985, dated 1986)
Converted amounts (≈) assume the structure as drawn. “And” between values parts separate entries of the source, which are not always exact repeats. Equal entries are not always repeated. Where two headings read alike, the source gives them in different places.

Legend:
[1] = system: Mycoplasma gallisepticum 29C; test: MIC, conventional broth-dilution microtiter test (Table IV); assay type: cell-based; conditions: Mycoplasmoides gallisepticum
Procedure: (§1) The MIC's s in Table III were determined by standard agar-dilution assays. The MIC's in Table IV were obtained using a conventional broth-dilution microtiter test.

[2] = system: Pasteurella multocida 40G; test: as above; assay type: cell-based; conditions: broth-dilution microtiter; Pasteurella multocida 40G; read-out: MIC
Procedure: as §1

Streptococcus sp. 19F = test: as above; assay type: cell-based
Procedure: as §1

[3] = system: Pasteurella multocida 68C; test: as above; assay type: cell-based; conditions: broth-dilution microtiter; Pasteurella multocida 68C; read-out: MIC
Procedure: as §1

[4] = system: Pasteurella hemolytica 23C; test: as above; assay type: cell-based; conditions: broth-dilution microtiter; Pasteurella hemolytica 23C; read-out: MIC
Procedure: as §1

[5] = system: Mycoplasma hyopneumoniae S5972; test: as above; assay type: cell-based; conditions: Mesomycoplasma hyopneumoniae
Procedure: as §1

[6] = system: Pasteurella multocida 60A; test: as above; assay type: cell-based; conditions: broth-dilution microtiter; Pasteurella multocida 60A, avian isolate; read-out: MIC
Procedure: as §1

Mycoplasma synoviae 40A = test: as above; assay type: cell-based; conditions: Mycoplasmopsis synoviae
Procedure: as §1

[7] = system: Mycoplasma gallisepticum 36H; test: as above; assay type: cell-based; conditions: Mycoplasmoides gallisepticum
Procedure: as §1

[8] = system: Pasteurella hemolytica 41D; test: as above; assay type: cell-based; conditions: broth-dilution microtiter; Pasteurella hemolytica 41D; read-out: MIC
Procedure: as §1

[9] = system: Pasteurella multocida 17E; test: as above; assay type: cell-based; conditions: broth-dilution microtiter; Pasteurella multocida 17E, bovine isolate; read-out: MIC
Procedure: as §1

[10] = system: Bordetella bronchisepticum 95B; test: as above; assay type: cell-based
Procedure: as §1

[11] = system: Staphylococcus aureus 19C; test: as above; assay type: cell-based; conditions: broth-dilution microtiter; Staphylococcus aureus 19C; read-out: MIC
Procedure: as §1

[12] = system: Mycoplasma gallisepticum 15E; test: as above; assay type: cell-based; conditions: Mycoplasmoides gallisepticum; broth-dilution microtiter; Mycoplasma gallisepticum 15E; read-out: MIC
Procedure: as §1

[13] = system: Pasteurella multocida 22A; test: as above; assay type: cell-based; conditions: broth-dilution microtiter; Pasteurella multocida 22A; read-out: MIC
Procedure: as §1

[14] = system: Pasteurella hemolytica 22C; test: as above; assay type: cell-based
Procedure: as §1

Pasteurella multocida = test: Activity in Pasteurella multocida-infected one-day-old chicks (Table VIII); assay type: in vivo; conditions: subcutaneous 30 mg/kg × 2, 1 and 4 hours post-challenge, all non-medicated chicks died within 24 hours
Procedure: Table VIII summarizes the results of tests in which illustrative compounds were evaluated against a Pasteurella infection in one-day-old chicks. The compounds were administered parenterally after challenge of the chicks with Pasteurella multocida (0.1 mL of a 10^-4 dilution of a twenty-hour tryptose broth culture of an avian P. multocida given subcutaneously). In these tests, all non-medicated infected chicks died within 24 hours of Pasteurella challenge. In the tests summarized in Table VIII, the compounds were administered by subcutaneous injection at a dosage of 30 mg/kg, 1 and 4 hours post-challenge of the chicks with P. multocida.

Streptococcus pyogenes = test: ED50 vs Streptococcus pyogenes experimental infection in mice (Table VI); assay type: in vivo; conditions: two doses, several values = results from more than one test
Procedure: (§2) Certain formula 1a compounds have also shown in vivo antimicrobial activity against experimental bacterial infections. When two doses of test compound were administered to mice in experimental infections, the activity observed was measured as an ED50 value [effective dose in mg/kg to protect 50% of the test animals: see Warren Wick, et al., J. Bacteriol. 81, 233-235 (1961)].

[15] = system: Streptococcous pneumoniae; test: ED50 vs. Streptococcous pneumoniae experimental infection in mice (Table VII); assay type: in vivo; conditions: Mus musculus, sc, subcutaneous, two doses, read-out: ED50 Subcutaneous
Procedure: as §2

[16] = system: Streptococcus pneumoniae Park I; test: microbe, parasite or virus in culture; assay type: cell-based
Procedure: as §1

Staphylococcus aureus = test: ED50 vs. Staphylococcus aureus experimental infection in mice (Table V); assay type: in vivo; conditions: sc, subcutaneous, two doses, dose protecting 50% of animals, read-out: ED50 Subcutaneous
Procedure: as §2

[17] = system: Streptococcus Group D 2041; test: MIC, standard agar-dilution assay (Table III); assay type: cell-based; conditions: GROUPD2041
Procedure: as §1

[18] = system: Haemophilus influenzae C.L.; test: MIC, standard agar-dilution assay (Table III); assay type: cell-based; conditions: agar dilution; Haemophilus influenzae C.L., ampicillin-sensitive strain; read-out: MIC
Procedure: as §1

[19] = system: Staphylococcus aureus V41; test: MIC, standard agar-dilution assay (Table III); assay type: cell-based; conditions: Staphylococcus aureus V41, penicillin-resistant strain
Procedure: as §1

[20] = system: Staphylococcus epidermidis 222; test: MIC, standard agar-dilution assay (Table III); assay type: cell-based
Procedure: as §1

[21] = system: Streptococcus Group D X66; test: MIC, standard agar-dilution assay (Table III); assay type: cell-based
Procedure: as §1

[22] = system: Staphylococcus epidermidis EPI1; test: MIC, standard agar-dilution assay (Table III); assay type: cell-based
Procedure: as §1

[23] = system: Staphylococcus aureus X400; test: MIC, standard agar-dilution assay (Table III); assay type: cell-based
Procedure: as §1

[24] = system: Staphylococcus aureus X1.1; test: MIC, standard agar-dilution assay (Table III); assay type: cell-based
Procedure: as §1

[25] = system: Haemophilus influenzae 76; test: MIC, standard agar-dilution assay (Table III); assay type: cell-based; conditions: agar dilution; Haemophilus influenzae 76, ampicillin-resistant strain; read-out: MIC
Procedure: as §1

[26] = system: Staphylococcus aureus S13E; test: MIC, standard agar-dilution assay (Table III); assay type: cell-based
Procedure: as §1

[27] = system: Streptococcus pyogenes C203; test: MIC, standard agar-dilution assay (Table III); assay type: cell-based; conditions: agar dilution; Streptococcus pyogenes C203; read-out: MIC
Procedure: as §1

Mycoplasma hyorhinis 29E = test: MIC, conventional broth-dilution microtiter test (Table IV); assay type: cell-based
Procedure: as §1

[28] = broth-dilution microtiter, Mycoplasma gallisepticum 36H, read-out: MIC
[29] = agar dilution, Streptococcus Group D 2041, read-out: MIC
[30] = agar dilution, Staphylococcus epidermidis 222, read-out: MIC
[31] = agar dilution, Streptococcus Group D X66, read-out: MIC
[32] = Staphylococcus epidermidis, EPI1
[33] = broth-dilution microtiter, Pasteurella hemolytica 22C, read-out: MIC

Compound	MIC ([1]; 29C) [µg/mL]	MIC [2] [µg/mL]	MIC (Streptococcus sp. 19F) [µg/mL]	MIC [3] [µg/mL]	MIC [4] [µg/mL]	MIC [6] [µg/mL]	MIC [8] [µg/mL]	MIC [9] [µg/mL]	MIC [10] [µg/mL]	MIC [11] [µg/mL]	MIC [13] [µg/mL]	ED50 (Streptococcus pyogenes; po, read-out: ED50 Oral) [mg/kg]	ED50 [15] [mg/kg]	ED50 (Staphylococcus aureus) [mg/kg]	MIC [18] [µg/mL]	MIC [19] [µg/mL]	MIC [24] [µg/mL]	MIC [25] [µg/mL]	MIC [26] [µg/mL]	MIC [27] [µg/mL]	also measured
CCC1OC(=O)CC(O)C(C)C(OC2OC(C)C(O)C(N(C)C)C2O)C(CC=O)CC(C)C(=O)C=CC(C)=CC1CN1CCCC12CCCCC2 (centres unmarked) [Compound 31, 23-deoxy-23-(1-azaspiro[4.5]decan-1-yl)-OMT]	0.097 (≈ 0.135 µM)	0.195 (≈ 0.271 µM)	< 0.048	0.39 (≈ 0.542 µM)	0.39 (≈ 0.542 µM)	0.39 (≈ 0.542 µM)	0.39 (≈ 0.542 µM)	0.39 (≈ 0.542 µM)	6.25 (≈ 8.69 µM)	0.39 (≈ 0.542 µM)	0.39 (≈ 0.542 µM)	59.5	9.22	2.15	2 (≈ 2.78 µM)	0.5 (≈ 0.695 µM)	0.5 (≈ 0.695 µM)	2 (≈ 2.78 µM)	0.5 (≈ 0.695 µM)	0.125 (≈ 0.174 µM)	MIC ([5]; S5972): 0.097 µg/mL (≈ 0.135 µM); MIC (Mycoplasma synoviae 40A; broth-dilution microtiter, Mycoplasma synoviae 40A, read-out: MIC): 0.195 µg/mL (≈ 0.271 µM); MIC [7, 28]: 50 µg/mL (≈ 69.5 µM); MIC [12]: 50 µg/mL (≈ 69.5 µM); MIC ([14]; Pasteurella, 22C): 0.78 µg/mL (≈ 1.08 µM); Number of Deaths/Number Treated (Pasteurella multocida): 0/10 and 3/10; MIC ([16]; Streptococcus pneumoniae): 0.03 µg/mL (≈ 0.0417 µM); MIC [17, 29]: 0.25 µg/mL (≈ 0.348 µM); MIC [20, 30]: 0.25 µg/mL (≈ 0.348 µM); MIC [21, 31]: 0.25 µg/mL (≈ 0.348 µM); MIC [22, 32]: 0.5 µg/mL (≈ 0.695 µM); MIC ([23]; Staphylococcus aureus, X400): 0.5 µg/mL (≈ 0.695 µM)
CCC1OC(=O)CC(O)C(C)C(OC2OC(C)C(O)C(N(C)C)C2O)C(CC=O)CC(C)C(=O)C=CC(C)=CC1CN1C2CCCCC2C2CCCCC21 (centres unmarked) [Compound 25, 23-deoxy-23-(dodecahydro-9H--carbazol-9-yl)-OMT]	–	1.56 (≈ 2.06 µM)	< 0.048	1.56 (≈ 2.06 µM)	1.56 (≈ 2.06 µM)	1.56 (≈ 2.06 µM)	1.56 (≈ 2.06 µM)	1.56 (≈ 2.06 µM)	25 (≈ 32.9 µM)	0.78 (≈ 1.03 µM)	1.56 (≈ 2.06 µM)	63	> 10	7.69	4 (≈ 5.27 µM)	0.5 (≈ 0.659 µM)	0.5 (≈ 0.659 µM)	1 (≈ 1.32 µM)	0.5 (≈ 0.659 µM)	0.25 (≈ 0.329 µM)	MIC ([1]; broth-dilution microtiter, Mycoplasma gallisepticum 29C, read-out: MIC): 0.097 µg/mL (≈ 0.128 µM); MIC ([5]; broth-dilution microtiter, Mycoplasma hyopneumoniae S5972, read-out: MIC): < 0.012 µg/mL; MIC (Mycoplasma hyorhinis 29E; Mycoplasma, 29E): < 0.048 µg/mL; MIC (Mycoplasma synoviae 40A; 40A): < 0.048 µg/mL; MIC [7, 28]: 50 µg/mL (≈ 65.9 µM); MIC [12]: 50 µg/mL (≈ 65.9 µM); MIC [14, 33]: 3.12 µg/mL (≈ 4.11 µM); ED50 (Streptococcus pyogenes; sc, subcutaneous, read-out: ED50 Subcutaneous): 7.43 mg/kg; ED50 Subcutaneous (Streptococcus pyogenes; subcutaneous): > 10 mg/kg × 2; MIC ([16]; agar dilution, Streptococcus pneumoniae Park I, read-out: MIC): 0.125 µg/mL (≈ 0.165 µM); MIC [17, 29]: 0.5 µg/mL (≈ 0.659 µM); MIC ([20]; Staphylococcus epidermidis, 222): 0.25 µg/mL (≈ 0.329 µM); MIC [21, 31]: 0.5 µg/mL (≈ 0.659 µM); MIC ([22]; agar dilution, Staphylococcus epidermidis EPI1, read-out: MIC): 0.5 µg/mL (≈ 0.659 µM); MIC ([23]; agar dilution, Staphylococcus aureus X400, methicillin-resistant strain, read-out: MIC): 1 µg/mL (≈ 1.32 µM)
CCC1OC(=O)CC(O)C(C)C(OC2OC(C)C(O)C(N(C)C)C2O)C(CC=O)CC(C)C(=O)C=CC(C)=CC1CN1CC2(C)CC1CC(C)(C)C2 (centres unmarked) [Compound 23, 23-deoxy-23-(1,3,3-trimethyl-6-azabicyclo[3.2.1]octan-6-yl)-OMT]	< 0.048	0.78 (≈ 1.06 µM)	< 0.048	0.78 (≈ 1.06 µM)	1.56 (≈ 2.13 µM)	1.56 (≈ 2.13 µM)	1.56 (≈ 2.13 µM)	0.78 (≈ 1.06 µM)	12.5 (≈ 17.1 µM)	1.56 (≈ 2.13 µM)	0.39 (≈ 0.532 µM)	100	3.6	3.79	2 (≈ 2.73 µM)	0.5 (≈ 0.682 µM)	0.5 (≈ 0.682 µM)	1 (≈ 1.36 µM)	0.5 (≈ 0.682 µM)	0.25 (≈ 0.341 µM)	MIC ([5]; S5972): 0.048 µg/mL (≈ 0.0655 µM); MIC (Mycoplasma hyorhinis 29E; broth-dilution microtiter, Mycoplasma hyorhinis 29E, read-out: MIC): 1.56 µg/mL (≈ 2.13 µM); MIC (Mycoplasma synoviae 40A; 40A): < 0.048 µg/mL; MIC ([7]; 36H): 3.12 µg/mL (≈ 4.26 µM); MIC [14, 33]: 1.56 µg/mL (≈ 2.13 µM); Number of Deaths/Number Treated (Pasteurella multocida): 10/10; MIC ([16]; Streptococcus pneumoniae, read-out: MIC): 0.06 µg/mL (≈ 0.0819 µM); MIC [17]: 0.5 µg/mL (≈ 0.682 µM); MIC [20, 30]: 0.125 µg/mL (≈ 0.171 µM); MIC [21]: 0.5 µg/mL (≈ 0.682 µM); MIC [22, 32]: 0.5 µg/mL (≈ 0.682 µM); MIC ([23]; Staphylococcus aureus, X400): 0.5 µg/mL (≈ 0.682 µM)
